Results from patent US20250296953A1, “3,4-THIAZOLO-STEROIDS AND METHODS OF MAKING AND USING THE SAME” (Arkansas State University - Jonesboro, priority 2018, published 2025).
Where two headings read alike, the source gives them in different places.

Key:
[1] = system: 60 different human tumor cell lines; conditions: five dose; for CC50: read-out: LC50
gliosarcoma (SF-539) = assay: NCI 60 five dose screen; conditions: SF-539 (CNS Cancer), five dose
SR = assay: NCI 60 five dose screen

Substance: (1S,2R,13R,14S,18S)-7-(2,4-dimethylanilino)-2,18-dimethyl-6-thia-8-azapentacyclo[11.7.0.02,10.05,9.014,18]icosa-5(9),7,10-trien-17-one [IIa.14]
- GI50 ([1]; SK-MEL-5 (Melanoma)): 1.86 µM
- TGI ([1]; SK-MEL-5 (Melanoma)): 3.73E−6
- GI50 ([1]; SK-MEL-28 (Melanoma)): 2.31 µM
- TGI ([1]; SK-MEL-28 (Melanoma)): 6.08E−6
- GI50 ([1]; SK-OV-3 (Ovarian Cancer)): 9.85 µM
- TGI ([1]; SK-OV-3 (Ovarian Cancer)): >1.00E−4
- GI50 ([1]; SN12C (Renal Cancer)): 2.17 µM
- TGI ([1]; SN12C (Renal Cancer)): 5.06E−6
- GI50 ([1]; SNB-19 (CNS Cancer)): 2.12 µM
- TGI ([1]; SNB-19 (CNS Cancer)): 5.09E−6
- GI50 ([1]; SNB-75 (CNS Cancer)): 2.19 µM
- TGI ([1]; SNB-75 (CNS Cancer)): 9.75E−5
- GI50 ([1]; SW-620 (Colon Cancer)): 2.7 µM
- GI50 ([1]; T-47D (Breast Cancer)): 2.89 µM
- TGI ([1]; T-47D (Breast Cancer)): >1.00E−4
- GI50 ([1]; TK-10 (Renal Cancer)): 2.46 µM
- TGI ([1]; TK-10 (Renal Cancer)): 6.70E−6
- TGI ([1]; U251 (CNS Cancer)): 3.21E−6
- GI50 ([1]; UACC-62 (Melanoma)): 1.72 µM
- TGI ([1]; UACC-62 (Melanoma)): 3.94E−6
- GI50 ([1]; UACC-257 (Melanoma)): 3.7 µM
- TGI ([1]; UACC-257 (Melanoma)): >1.00E−4
- GI50 ([1]; UO-31 (Renal Cancer)): 1.34 µM
- TGI ([1]; UO-31 (Renal Cancer)): 2.86E−6
- CC50 ([1]; 786-0 (Renal Cancer)): 5.84 µM
- CC50 ([1]; A498 (Renal Cancer)): > 100 µM
- CC50 ([1]; A549/ATCC (Non-small Cell Lung Cancer)): > 100 µM
- CC50 ([1]; BT-549 (Breast Cancer)): 5.8 µM
- CC50 ([1]; CAKI-1 (Renal Cancer)): > 100 µM
- CC50 ([1]; CCRF-CEM (Leukemia)): > 100 µM
- CC50 ([1]; COLO 205 (Colon Cancer)): > 100 µM
- CC50 ([1]; DU-145 (Prostate Cancer)): > 100 µM
- CC50 ([1]; EKVX (Non-small Cell Lung Cancer)): > 100 µM
- CC50 ([1]; HCT-15 (Colon Cancer)): > 100 µM
- CC50 ([1]; HCT-116 (Colon Cancer)): 5.46 µM
- CC50 ([1]; HL-60(TB) (Leukemia)): > 100 µM
- CC50 ([1]; HOP-62 (Non-small Cell Lung Cancer)): > 100 µM
- CC50 ([1]; HOP-92 (Non-small Cell Lung Cancer)): 8.68 µM
- CC50 ([1]; HT29 (Colon Cancer)): > 100 µM
- CC50 ([1]; IGROV1 (Ovarian Cancer)): > 100 µM
- CC50 ([1]; K-562 (Leukemia)): > 100 µM
- CC50 ([1]; KM12 (Colon Cancer)): ≥ 100 µM
- CC50 ([1]; LOX IMVI (Melanoma)): 5.96 µM
- CC50 ([1]; MALME-3M (Melanoma)): > 100 µM
- CC50 ([1]; MCF7 (Breast Cancer)): > 100 µM
- CC50 ([1]; MDA-MB-231/ATCC (Breast Cancer)): > 100 µM
- CC50 ([1]; MDA-MB-435 (Melanoma)): > 100 µM
- CC50 ([1]; MDA-MB-468 (Breast Cancer)): 8.01 µM
- CC50 ([1]; MOLT-4 (Leukemia)): > 100 µM
- CC50 ([1]; NCI-H23 (Non-small Cell Lung Cancer)): > 100 µM
- CC50 ([1]; NCI-H226 (Non-small Cell Lung Cancer)): > 100 µM
- CC50 ([1]; NCI-H460 (Non-small Cell Lung Cancer)): > 100 µM
- CC50 ([1]; NCI-H522 (Non-small Cell Lung Cancer)): 6.43 µM
- CC50 ([1]; NCI/ADR-RES (Ovarian Cancer)): > 100 µM
- CC50 ([1]; OVCAR-3 (Ovarian Cancer)): 38.2 µM
- CC50 ([1]; OVCAR-4 (Ovarian Cancer)): > 100 µM
- CC50 ([1]; OVCAR-5 (Ovarian Cancer)): > 100 µM
- CC50 ([1]; OVCAR-8 (Ovarian Cancer)): > 100 µM
- CC50 ([1]; RXF 393 (Renal Cancer)): 6.01 µM
- CC50 ([1]; SF-268 (CNS Cancer)): > 100 µM
- CC50 ([1]; SK-MEL-2 (Melanoma)): 22.7 µM
- CC50 ([1]; SK-MEL-5 (Melanoma)): 7.47 µM
- CC50 ([1]; SK-MEL-28 (Melanoma)): > 100 µM
- CC50 ([1]; SK-OV-3 (Ovarian Cancer)): > 100 µM
- CC50 ([1]; SN12C (Renal Cancer)): > 100 µM
- CC50 ([1]; SNB-19 (CNS Cancer)): > 100 µM
- CC50 ([1]; SNB-75 (CNS Cancer)): > 100 µM
- CC50 ([1]; SW-620 (Colon Cancer)): > 100 µM
- CC50 ([1]; T-47D (Breast Cancer)): > 100 µM
- CC50 ([1]; TK-10 (Renal Cancer)): > 100 µM
- CC50 ([1]; U251 (CNS Cancer)): 6.1 µM
- CC50 ([1]; UACC-62 (Melanoma)): 9.02 µM
- CC50 ([1]; UACC-257 (Melanoma)): > 100 µM
- CC50 ([1]; UO-31 (Renal Cancer)): 6.12 µM
- GI50 (gliosarcoma (SF-539)): 1.62 µM
- TGI (gliosarcoma (SF-539)): 3.08E−6
- CC50 (gliosarcoma (SF-539); read-out: LC50): 5.86 µM
- GI50 (SR; SR (Leukemia), five dose): 2.32 µM
- TGI (SR; SR (Leukemia), five dose): >1.00E−4
- 50% growth inhibition (GI50) (SR; leukemia cell line SR): submicromolar
- CC50 (SR; read-out: LC50, SR (Leukemia), five dose): > 100 µM
